Patent US10738028B2, “Spiro three-membered ring, spiro five-membered ring peptide deformylase inhibitor and use thereof in antibacteria and anti-tumor” (priority 2016, dated 2020)
Converted amounts (≈) assume the structure as drawn.

What was measured:
[1] = test system: HCT-116 colorectal cancer cell line; experiment: CCK-8 proliferation inhibition; format: cell-based; conditions: concentration of 30 μM; 72 hours; CCK-8; 30 µM
Summary of the method: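 Cells seeded at 2000 cells/well, cultured overnight at 37 °C, 5% CO2, then exposed to compound (DMSO; control 1‰ DMSO) for 72 h in McCoy's 5A with 10% newborn bovine serum. Viability read with 1:10 diluted CCK-8.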

[2] = test system: methicillin-sensitive Staphylococcus aureus (MSSA); experiment: MIC, two-fold agar dilution (CLSI), clinical isolates; format: cell-based
Summary of the method: (§1)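 Following the American Clinical and Laboratory Standards Institute procedure, agar two-fold dilution served to determine minimum inhibitory concentrations.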

[3] = test system: methicillin-sensitive Staphylococcus epidermidis (MSSE); experiment: as above; format: cell-based
Summary of the method: as §1

[4] = test system: methicillin-resistant Staphylococcus aureus (MRSA); experiment: as above; format: cell-based
Summary of the method: as §1

[5] = test system: methicillin-resistant Staphylococcus epidermidis (MRSE); experiment: as above; format: cell-based
Summary of the method: as §1

[6] = test system: Escherichia coli (including ESBLs, non-ESBLs); experiment: as above; format: cell-based
Summary of the method: as §1

[7] = test system: Enterococcus faecalis (EFA); experiment: as above; format: cell-based
Summary of the method: as §1

[8] = test system: MGC-803 gastric cancer cell line; experiment: CCK-8 proliferation inhibition; format: cell-based; conditions: concentration of 30 μM
Summary of the method: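 Cells seeded at 2000 cells/well, cultured overnight at 37 °C, 5% CO2, then exposed 72 h to compound dilutions in medium with 10% newborn bovine serum (1‰ DMSO control). Viability read with 1:10 diluted CCK-8 solution. Media: PC3 in F12; MGC-803 and Jurkat in 1640; MCF-7 in DMEM high glucose.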

[9] = test system: BEL-7402 liver cancer cell line; experiment: CCK-8 proliferation inhibition; format: cell-based; conditions: concentration of 30 μM, 72 hours, 30 µM
Summary of the method: (§2)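 Plating at 2000 cells/well, then incubation overnight at 37° C. Next, a range of compound concentrations for 72 hours (control 1‰ DMSO). Finally, medium decanted and CCK-8 diluted 1:10 added.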

[10] = test system: A549 lung cancer cell line; experiment: CCK-8 proliferation inhibition; format: cell-based; conditions: Homo sapiens, A549, 72 h, concentration of 30 μM
Summary of the method: as §2

[11] = test system: methemoglobin in blood samples of three healthy volunteers; experiment: Toxicity on methemoglobin in vitro (whole blood with S9 and NADPH, absorbance at 630 nm); format: cell-based, human
Protocol: Because PDF inhibitors such as LBM415 and GSK1322322 can produce active species such as aromatic hydroxylamine and aromatic hydrazines in metabolic process, and cause human methemoglobinemia. To this end, continuous wavelength method was adopted in this invention to scan the absorption spectrum of blood samples in the wavelength range of 500 to 700 nm in the ultraviolet-visible spectrophotometer, and the contents of methemoglobin in blood samples of three healthy volunteers were calculated, after being effected by the synthesized compounds.
Experimental materials: Nicotinamide adenine dinucleotide phosphate (NADPH) reduction system: glucose-6-disodium phosphate, nicotinamide adenine dinucleoside phosphate and glucose-6-phosphate dehydrogenase (purchased from Shanghai yuanye Bio-Technology Co., Ltd) were added to 1 mL of phosphate buffer solution (PBS, pH 7.4), and the mixture was shaked in a shaker type water bath at 37° C. for 10 min, and then cooled to 0° C. Mixed human hepatocytes fraction S9 was purchased from Xenotech (20 mg S9 protein/1 mL suspension medium). Compounds were prepared to stock solution at a concentration of 50 mM, which was stored at −20° C. for use. Dapsone was used as positive control experimental reagent, which was purchased from Sigma Aldrich. 1% w/v triton X-100 was self-prepared. Blood samples were collected using Vacutainer tubes containing EDTA anticoagulants (BD, Franklin Lakes, USA), which were sampled from three healthy volunteers and used immediately after sampling.
Preparation of incubation system for blood samples and drugs: 250 μL of incubation system was consist of 220 μL of whole blood, 25 μL of S9 (final concentration: 2 mg S9 protein/mL incubation solution), 2.5 μL of NADPH form system (final concentration: 10 mM G-6-P, 1 mM NADP, 7.5 Units/mL) and 2.5 μL of stock solution of a compound (final concentration 500 μM). […] of incubation system was placed in an Eppendorf tube and incubated for 5 hours at 37° C. in water bath.
Determination of the content of methemoglobin: 60 μL of an incubated sample was taken and lysed with 3.0 mL of 1% Triton X-100. The content of methemoglobin (MetHb) was measured by an ultraviolet-visible spectrophotometer, with the Triton X-100 solution used as blank control. A sample was placed in a cuvette, 1 minute later, the spectrums of the sample in the wavelength range from 500 nm to 700 nm were recorded. The sample was added with 2 mg of potassium ferricyanide, and was allowed to stay stationary for 2 minutes for completely oxidization of ferrous iron in the sample, and standard spectrum of methemoglobin with saturated potassium ferricyanide. The percentage of methemoglobin formation (MetHb %) was obtained by the ratio of absorbance at 630 nm. MetHb %=(A′−AB′)/AM′, wherein, A′ was the total absorbance of the sample at 630 nm, AB′ was the base absorbance of the reduced blood in the sample at 630 nm, and AM′ was the absorbance of oxidized blood with saturated potassium ferricyanide at 630 nm.

[12] = MIC in vitro anti-bacterial experiments, Gram-positive bacteria; format: cell-based; conditions: lowest MIC reached; read-out: minimum inhibitory concentration against Gram-positive bacteria
Source text: 1. The invention adopts the two-fold agar dilution method recommended by the operating procedure of antimicrobial susceptibility testing set by American Clinical and Laboratory Standards Institute (CLSI) to determine the Minimum Inhibitory Concentration (MIC) of the test samples against the tested strains.

MIC (anti-bacterial activity) ([2]; strain MSSA 14-1): < 8 ng/mL | MIC (anti-bacterial activity) ([2]; strain MSSA 14-2): < 8 ng/mL | MIC (anti-bacterial activity) ([2]; strain MSSA 14-3): < 8 ng/mL | MIC (anti-bacterial activity) ([2]; strain MSSA 14-4): < 8 ng/mL | MIC (anti-bacterial activity) ([3]; strain MSSE 14-1): < 8 ng/mL | MIC (anti-bacterial activity) ([3]; strain MSSE 14-2): < 8 ng/mL | MIC (anti-bacterial activity) ([3]; strain MSSE 14-3): < 8 ng/mL | MIC (anti-bacterial activity) ([3]; strain MSSE 14-4): < 8 ng/mL | MIC (anti-bacterial activity) ([4]; strain MRSA 14-1): < 8 ng/mL | MIC (anti-bacterial activity) ([4]; strain MRSA 14-2): < 8 ng/mL | MIC (anti-bacterial activity) ([4]; strain MRSA 14-4): < 8 ng/mL | MIC (anti-bacterial activity) ([4]; strain MRSA 14-5): < 8 ng/mL | MIC (anti-bacterial activity) ([4]; strain printed MRSA 14-1 (second line of that name, r23, before MRSE 14-2)): < 8 ng/mL | MIC (anti-bacterial activity) ([5]; strain MRSE 14-2): < 8 ng/mL | MIC (anti-bacterial activity) ([5]; strain MRSE 14-3): < 8 ng/mL | MIC (anti-bacterial activity) ([5]; strain MRSE 14-4): < 8 ng/mL | MIC (anti-bacterial activity) ([6]; strain ECO+ 14-1): 125 ng/mL (≈ 0.306 µM) | MIC (anti-bacterial activity) ([6]; strain ECO+ 14-2): 32000 ng/mL (≈ 78.3 µM) | MIC (anti-bacterial activity) ([6]; strain ECO− 14-1): 32000 ng/mL (≈ 78.3 µM) | MIC (anti-bacterial activity) ([6]; strain ECO− 14-2): 32000 ng/mL (≈ 78.3 µM) | MIC (anti-bacterial activity) ([7]; strain EFA 14-1): 125 ng/mL (≈ 0.306 µM) | MIC (anti-bacterial activity) ([7]; strain EFA 14-2): 500 ng/mL (≈ 1.22 µM) | MIC (anti-bacterial activity) ([7]; strain EFA 14-3): 500 ng/mL (≈ 1.22 µM) | MIC (anti-bacterial activity) ([7]; strain EFA 14-5): 250 ng/mL (≈ 0.612 µM) | MIC [12]: < 8 ng/mL
SMILES: CCCC[C@H](CN(O)C=O)C(=O)N1CC2(CC2)C[C@H]1C(=O)Nc1ncc(C)s1 [Example 6]
HCT116 inhibition rate/% [1]: 86% | inhibition at 30 µM ([8]; Homo sapiens, MGC-803, 72 h): > 50% | Inhibition of proliferation, Gastric cancer MGC-803 ([8]; 72 hours, 30 µM): 66% | Inhibition of proliferation, Liver cancer BEL-7402 [9]: 74% | inhibition at 30 µM [10]: 26% | MetHb % (n = 3) ([11]; 500 μM compound, whole blood + S9 + NADPH, 5 hours at 37° C.): 2.25 ± 0.02% | probability of methemoglobin formation in blood compared with the control drugs LBM415 and GSK1322322 ([11]; toxicity test in vitro, in words): lower probability of methemoglobin formation in blood
